According to the supplement of paper PMC11997997:

How the values were obtained:
[1] = system: murine bone marrow-derived macrophages; experiment: area under cytotoxicity dose-response curve (AUC (% cytotoxicity x dose, relative)); higher = more cytotoxic; settings: duration: 6 days; dose range: 0.13-80 uM, 8 points
Outline: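 Cytotoxicity is given as the area under the dose–response curve, computed in GraphPad Prism version 10. Primary murine bone marrow-derived macrophages in opaque 384-well plates received an 8-point, 2.5-fold dilution series (final 80–0.13 μM) for 6 days at 37 °C in 5% CO2. Viability was measured by Promega's CellTiter-Glo luminescence assay, with percent cytotoxicity normalised to vehicle and positive control wells.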

[2] = system: Mycobacterium tuberculosis CDC1551 (intracellular, in murine BMDM); experiment: area under intracellular growth-inhibition dose-response curve (AUC (% inhibition x dose, relative)); higher = more potent; settings: duration: 6 days; dose range: 0.13-80 uM, 8 points
Outline: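 Luciferase-expressing M. tuberculosis CDC1551 was used at multiplicity of infection 1 for 1 h to infect primary murine bone marrow-derived macrophages in 384-well opaque plates, 24 h after seeding. Treatment followed for 6 days with an 8-dose, 2.5-fold series at final concentrations of 80–0.13 μM. GraphPad Prism was used to calculate the area under the growth-inhibition dose–response curve from Bright-Glo luciferin readings normalised to a reference drug control and the lowest-concentration wells.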

SMILES | area under cytotoxicity dose-response curve [1] | area under intracellular growth-inhibition dose-response curve [2]
CCc1ccc(OCC(=O)NC(=S)Nc2ccc(C(C)=O)cc2)c(Br)c1 | < 0 | 238
O=C(NC1CCCC1)C1CC1c1ccccc1 (stereo not drawn) | < 0 | 135
O=C(c1cccc(C(F)(F)F)c1)N1CCCC1 | < 0 | 232
CCCn1c(-c2cccs2)nc2ccccc21 | < 0 | 103
O=C(COC(=O)c1ccccc1O)NC1CCCc2ccccc21 (stereo not drawn) | < 0 | 126
CCCCCOc1ccc(C(=O)CCC(=O)NNC(=O)c2ccncc2)cc1 | 75.4 | 224
O=[N+]([O-])c1ccc(CN2CCN(c3ccccc3Cl)CC2)o1 | 63.5 | 123
COc1cccc(CNC(=O)CN2C(=O)NC(Cc3ccccc3)(c3ccccc3)C2=O)c1 (stereo not drawn) | 1.94 | 89.4
COc1ccc(NC(=O)/C(Cl)=C(/Cl)S(=O)Cc2ccccc2Cl)cn1 (stereo not drawn) | 140 | < 0
CC(=O)OCC1=C(C(=O)O)N2C(=O)[C@@H](NC(=O)CSc3ccncc3)[C@H]2SC1.[Na+] | 52.5 | 114
CCOC1OC(O)=C(Cl)/C1=N\c1ccccc1C (stereo not drawn) | < 0 | 231
COc1ccc2nc(C)cc(N/N=C/c3ccccc3)c2c1 | 97.6 | 136
NC1=NC(=O)/C(=C/c2ccc(Cl)cc2Cl)S1 | < 0 | 129
CC(=O)Nc1sc(N/N=C/c2ccc(N(C)C)cc2)nc1-c1ccc(C)cc1 | 6.8 | 263
O=C(COc1ccccc1)NC1C(=O)N2C(C(=O)O)=C(Cl)CSC12 (stereo not drawn) | < 0 | 144
Cc1cc(OCC(=O)N2CCCC2)cc(C)c1Cl | < 0 | 254
CN(C)c1ccc(/C=N/CC2(O)CCOC(C)(C)C2)cc1 (stereo not drawn) | 103 | 1.75
O=C(COC(=O)Cc1cccs1)NCC(=O)Nc1ccc(F)cc1 | 45.1 | < 0
Cc1cccc(N2CCN(Cc3ccc([N+](=O)[O-])o3)CC2)c1C | 38.8 | 221
O=C(COc1ccccc1)NC1CCCCC1 | 80.6 | 260
Cc1ccc(OCCCC(=O)NNC(=O)c2ccncc2)cc1 | 10.4 | 268
COc1cccc(/C=N/NC(N)=S)c1OS(=O)(=O)c1ccccc1 | 94.4 | 237
COc1ccc(/C=C(\NC(=O)c2ccc(C)cc2)C(=O)Nc2c(C)n(C)n(-c3ccccc3)c2=O)cc1 | 42 | 50.7
Cc1ccc(C(=O)N2CCCC2)cc1Br | 8.65 | 166
Cc1ccc2ccc3ccc(C)nc3c2n1 | 160 | 29.4

SMILES | area under cytotoxicity dose-response curve [1] | area under intracellular growth-inhibition dose-response curve [2]
COc1cc(/C=N/NC(N)=S)ccc1OCc1ccc(C)cc1 | 30.4 | 255
Cl.O=C(CCN1CCN(CCO)CC1)N1c2ccccc2Sc2ccc(C(F)(F)F)cc21 | 75 | 61.3
O=C(NC(=S)Nc1ccc(-c2nc3ncccc3o2)cc1)c1ccccc1F | < 0 | 138
CC(NC(=O)c1cccc(Cl)c1)C1CC2CCC1C2 (stereo not drawn) | 48.5 | 225
CC(C(=O)NC1C(=O)N2C(C(=O)O)=C(CSc3nnnn3C)CSC12)n1cc(Cl)cn1 (stereo not drawn) | 23.7 | 174
CC(NC(=S)Nc1ccc(OC(F)F)c(Cl)c1)C(C)(C)C (stereo not drawn) | 12.4 | 198
O=C(N/N=C/c1ccccc1Cl)c1ccncc1 | 69.2 | 234
Cn1nc([N+](=O)[O-])nc1Oc1ccc(C(C)(C)C)cc1 | 40.1 | 206
CC(=O)NC(=S)Nc1ccc(NC(=O)c2cccnc2Cl)cc1 | < 0 | 262
O=C(/C=C/c1ccc2c(c1)OCO2)N1CCCCC1 | 15.2 | 155
Cc1cc(C)n(CC(=O)NC2C(=O)N3C(C(=O)O)=C(CSc4nnc(C)s4)CSC23)n1 (stereo not drawn) | 11.2 | 122
Cc1cc(=O)c2cc(Br)ccc2n1CC(=O)NCc1ccccc1 | 41.6 | 233
Cc1cc(O)c2c(n1)c(C)cc1[nH]c(C)c(C)c12 | < 0 | 137
Cc1ccc2sc(N3CCN(C(=O)c4ccc([N+](=O)[O-])o4)CC3)nc2c1C | 11.3 | 12.2
O=C(NCCC1=CCCCC1)c1ccc(F)cc1 | 3.13 | 122
CCCC(C)NC(=O)c1ccc(F)cc1 (stereo not drawn) | 4.45 | 248
CC1CCc2c(nc3sc4c(c3c2N)CCCC4)C1 (stereo not drawn) | 60.7 | 206
CCN(C(=O)COC(=O)c1nc(Cl)ccc1Cl)c1c(N)n(Cc2ccccc2)c(=O)[nH]c1=O | 73 | 28.6
Cc1ccc(C2=NCCn3c2c2ccc([N+](=O)[O-])cc2[n+]3[O-])cc1 | 96.8 | 20.7
O=C(NCCc1ccncc1)Nc1cccc(Cl)c1 | 79.9 | 11.9
N#Cc1ccc(OCC(=O)N2CCN(S(=O)(=O)c3ccc(Cl)s3)CC2)cc1 | 65.3 | 31.9
CNC(=S)Nc1ccc(OCc2ccccc2)cc1 | 75.3 | 242
CNc1cc(Cl)c2nonc2c1[N+](=O)[O-] | 10.1 | 3.12
COc1ccc(C=CC(C)=NNC(=O)c2ccncc2)cc1 | < 0 | 254
